Counter-ions that a name gives are not always drawn.
Legend:
[1] = tested on: dopamine release in the striatum/nucleus accumbens; conditions: striatal microdialysis, literature reports; cited from earlier work
[2] = tested on: dopamine release in the cortex; conditions: literature reports; cited from earlier work
[3] = tested on: dopamine release in the nucleus accumbens; assay: in vivo microdialysis in freely moving rats, dopamine efflux in nucleus accumbens; conditions: for dopamine release in the nucleus accumbens: basal conditions, IP administration, monitored 210 minutes
Procedure: To determine whether irdabisant (or pharmaceutically acceptable salt thereof, such as irdabisant hydrochloride) leads to dopamine release in the nucleus accumbens under basal conditions similar to those in which pitolisant, ABT-239 and JNJ-39220675 were tested and found to have no effect, in vivo microdialysis was performed in freely moving rats. Dopamine levels were monitored for 210 minutes following compound administration. Irdabisant hydrochloride was administered intraperitoneally (IP) at 0.001, 0.01, 0.3 and 10 mg/kg for 30 minutes following an IP vehicle (0.5% methylcellulose and 0.2% Tween 80) injection.
Male Sprague-Dawley albino rats weighing 250 to 350 g were housed two per cage and maintained in a controlled 12:12-h light/dark cycle and under constant temperature at 22° C., with free access to food and water. Rats were anesthetized with the modified Equithesin mixture (see, e.g., Li et al., Neuropsychopharm., 30, 1986-1995, 2005) and mounted in a stereotaxic frame. Stainless guide cannula with a dummy probe were placed and fixed by cranioplastic cement onto the cortex dorsal both to the medial prefrontal cortex (mPFC) and the nucleus accumbens (NAC). Rats received dual probe implantation for the mPFC and NAC (coordinates: A+3.2, L+0.8 (10° C. inclination), V-5.5 mm and A+2.0, L+1.5 to +1.7, V-7.5 mm, respectively, relative to bregma). Three to five days after cannulation, a dialysis probe was implanted into the mPFC and NAC under slight anesthesia with isoflurane. Rats were then housed individually overnight in a dialysis cage and the probes perfused with Dulbecco's phosphate-buffered saline solution with calcium (Sigma, St. Louis, MO) (138 mM NaCl, 8.1 mM Na2HPO4, 2.7 mM KCl, 1.5 mM KH2PO4, 0.5 mM MgCl2, 1.2 mM CaCl2), pH 7.4) at a rate of 0.4 μL/min. On the day of the experiment, the flow was increased to 1.5 μL/min. Sample collection began one hour later, and samples were collected every 30 min. After 60 min of stable baseline, each rat was dosed twice (indicated by arrows in FIG. 1-4); a vehicle dose at t=0 min., followed 30 minutes later by a dose of irdabisant hydrochloride. Dopamine (DA) and acetylcholine (Ach) samples, measured in the absence of cholinesterase inhibition, were monitored with HPLC coupled to mass spectrometry.
Data are presented as percentages of baseline from baseline to 180 minutes after treatment. Mean baseline levels (i.e., an average of 60, 30, and 0 minutes before injection) of DA and ACh in the mPFC and NAC were designated as 100%. Non-transformed data were analyzed at each dose by assessing the change relative to the mean baseline using a one-way repeated measures ANOVA followed by a Bonferroni's post-hoc test as implemented in the SigmaPlot version 11.0.0.77 statistical package (Systat Software, Inc., San Jose CA).

[4] = cited from earlier work
[5] = oral, after dosing; cited from earlier work

SMILES: C[C@@H]1CCCN1CCc1cc2cc(-c3ccc(C#N)cc3)ccc2o1 [ABT-239, (R)-4-(2-(2-(2-methyl-|-pyrrolidinyl)ethyl)-1-benzofuran-5-yl)benzonitrile]
- dopamine release in the nucleus accumbens [1]: lack of effect on dopamine release

SMILES: C(#Cc1ccc(CN2CCOCC2)cc1)CCN1CCCCC1.Cl.Cl [JNJ-10181457]
- dopamine release in the cortex [2]: do not

SMILES: O=C(c1ccc(Oc2ccc(F)cc2)nc1)N1CCCN(C2CCC2)CC1 [JNJ-39220675, (4-cyclobutyl-1,4-diazepan-1-yl) (6-(4-fluorophenoxy)pyridin3-yl) methanone]
- dopamine release in the nucleus accumbens [1]: lack of effect on dopamine release

SMILES: C[C@@H]1CCCN1CCCOc1ccc(-c2ccc(=O)[nH]n2)cc1 [irdabisant hydrochloride]
- elevation in dopamine levels relative to baseline ([3]; 0.01 mg/kg dose, 180 minutes post-dose, p=0.005, overall p<0.001): statistically significant elevation in dopamine levels
- elevation in dopamine levels relative to baseline ([3]; 0.3 mg/kg dose, 90 minute time point, p=0.02, overall p=0.003): significance
- maximal effect on nucleus accumbens dopamine efflux ([3]; 10 mg/kg IP dose): 205.6±6.86 % over basal
- elevation in dopamine levels relative to baseline ([3]; 10 mg/kg dose, 60, 90, 120 and 150 minute time points, overall p<0.001): significance was achieved
- threshold dose for nucleus accumbens dopamine efflux ([3]; IP): 0.01 mg/kg
- dopamine release in the nucleus accumbens [3]: increased dopamine release was observed

SMILES: C[C@@H]1CCCN1CCCOc1ccc(-c2ccc(=O)[nH]n2)cc1 [irdabisant, 6-{4-[3-((R)-2-methyl-pyrrolidin-1-yl)-propoxy]-phenyl}-2H-pyridazin-3-one]
- change over placebo on BL-VAS subscales ([4]; Baakman et al. 2019): increasing scores on BL-VAS alertness and contentedness/mood subscales
- subjective experiences and cognitive effects ([4]; healthy participants, after a single dose): promote positive subjective experiences and cognitive effects
- dopamine release in the nucleus accumbens [3]: increases dopamine release
- Tmax [5]: approximately 5 hours

SMILES: Clc1ccc(CCCOCCCN2CCCCC2)cc1 [pitolisant]
- dopamine release in the nucleus accumbens [1]: no increase in release of dopamine release
